According to patent publication US20260224652A1, “ENRICHED PELARGONIUM GRAVEOLENS EXTRACTS FOR THE TREATMENT OF TRAUMATIC BRAIN INJURIES” (THE STATE OF ISRAEL, MINISTRY OF AGRICULTURE & RURAL …, priority 2023, published 2026):
Structures can show the parent of a compound that is named as a salt.

How the values were obtained:
[1] = test system: mice subjected to a closed head injury (CHI); assay: Neurological Severity Score (NSS) after closed head injury; assay type: in vivo; settings: oral gavage, 9 daily doses over 2 weeks starting 24 h after CHI; Pg oil 100 mg/kg, citronellol 25 mg/kg, citronellyl formate 80 mg/kg; from day 7 up to 30 days after trauma
Method: (§1) Experimental CHI was induced by using a modified weight drop device (Chen et al; Flierl et al). Briefly, under 3% isoflurane anesthesia and supplementary oxygen (confirmed by the loss of response to pinch of paw), a midline longitudinal incision is performed, and the skull is exposed. A Teflon tipped cone (2 mm diameter) is placed upside down 2 mm lateral to the midline and 2 mm posterior to the bregma in the mid-coronal plane. The head is held in place and a 95 g weight is allowed to free-fall on the cone from a pre-established height, resulting in focal injury to the left hemisphere. The height of the free-fall weight is determined by the weight of the mouse and the desired CHI severity. In the present experiments, a free-fall of 6.5-7 cm was selected to induce a moderate neurological severity injury (NSS of 6-7 at 1 hr post injury). […] At 1 h after CHI, the NSS is evaluated. […] Animals displaying apnea were monitored carefully and returned to their cage when adequate oxygenation was restored. • a. […]
The functional status of the mice was evaluated according to the neurobehavioral score, known as the Neurological Severity Score (NSS), which consists of several tests that assess reflexes, alertness, coordination, and motor abilities. […]
The neurological severity score (NSS) was determined for each of the experimental groups of mice (details as described above) starting 1 hour after the trauma.

[2] = test system: mice subjected to a closed head injury (CHI); assay: Barnes maze test (learning) after CHI; assay type: in vivo; settings: acquisition days 1-4, two weeks after CHI; oral gavage, 9 daily doses; Pg oil 100 mg/kg, citronellol 25 mg/kg, citronellyl formate 80 mg/kg
Method: as §1, with “injury). Sham mice were anesthetized and subjected to the same skin incision as described above, with no further trauma.” for “injury).”
The BM test is based on the instinct of the mouse to hide when exposed to environmental disturbances and is used to test spatial learning and memory. […] For the probe trial, the latency to reaching the escape box first is recorded. […]

[3] = test system: mice subjected to a closed head injury (CHI); assay: Novel Object Recognition (NOR) test after CHI; assay type: in vivo; settings: 22 days after trauma; 4 hours after object replaced; oral gavage, 9 daily doses; Pg oil 100 mg/kg, citronellol 25 mg/kg, citronellyl formate 80 mg/kg
Method: as §1, with “severity.” for “severity. In the present experiments, a free-fall of 6.5-7 cm was selected to induce a moderate neurological severity injury (NSS of 6-7 at 1 hr post injury).”
The novel object recognition (NOR test) was performed to assess short term memory 22d after trauma. […] The cumulative time spent by each mouse exploring the objects was recorded manually for a total of 5 min. […] Exploration of the object was determined as such when the mouse's nose was pointed in the direction of the object and the mouse was actively investigating it, directly touching it or being close to it. […] The time spent exploring each of the objects (novel or familiar) was recorded and calculated as the percentage of time from a total of 5 min. […]

[4] = test system: mice subjected to a closed head injury (CHI); assay: Y maze spatial memory test after CHI; assay type: in vivo; settings: 24 days after trauma; oral gavage, 9 daily doses; Pg oil 100 mg/kg, citronellol 25 mg/kg, citronellyl formate 80 mg/kg
Method: as §1, with “severity.” for “severity. In the present experiments, a free-fall of 6.5-7 cm was selected to induce a moderate neurological severity injury (NSS of 6-7 at 1 hr post injury).”
At 24 days post CHI, the Y maze spatial memory test was preformed to evaluate short term spatial memory. […] Short-term memory is reflected by the Preference index (PI), calculated as the amount of time spent in the new arm relative to the total amount of time spent in the “other” plus “new” arms. […]
The data was further analyzed by dividing the mice's performance into two groups: mice with (+) positive y-axis values (which represent a good spatial memory) and mice with negative (−) y-axis values (which represent spatial memory loss).

acetyl choline esterase = acetyl choline esterase (Homo sapiens, UniProt P22303); settings: in vitro; cited from earlier work
Chain of acetyl choline esterase (P22303 32-614): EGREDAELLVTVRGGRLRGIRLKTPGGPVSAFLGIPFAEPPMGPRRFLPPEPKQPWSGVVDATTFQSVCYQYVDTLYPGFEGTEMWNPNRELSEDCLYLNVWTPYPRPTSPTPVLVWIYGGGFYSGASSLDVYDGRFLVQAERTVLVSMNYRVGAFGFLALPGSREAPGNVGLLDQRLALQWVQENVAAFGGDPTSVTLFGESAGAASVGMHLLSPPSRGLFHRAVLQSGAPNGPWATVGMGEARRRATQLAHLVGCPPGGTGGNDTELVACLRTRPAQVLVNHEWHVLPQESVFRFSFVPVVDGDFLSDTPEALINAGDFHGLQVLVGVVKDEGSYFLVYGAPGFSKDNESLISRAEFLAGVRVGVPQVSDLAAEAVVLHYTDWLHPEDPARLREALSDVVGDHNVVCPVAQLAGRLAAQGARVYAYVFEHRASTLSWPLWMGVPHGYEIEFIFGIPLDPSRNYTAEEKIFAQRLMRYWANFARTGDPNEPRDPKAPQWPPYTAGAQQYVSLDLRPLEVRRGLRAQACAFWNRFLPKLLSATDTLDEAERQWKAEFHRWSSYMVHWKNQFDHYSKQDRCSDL

Structure (SMILES)	reduction in the neurological severity score (NSS) compared with vehicle treated CHI mice [1]	Barnes maze learning performance (latency to escape box) [2]	preference/recognition of a novel object versus a familiar one (NOR) [3]	percent of mice that preferred the novel arm over the familiar arm (Y maze) [4]	inhibition of acetyl choline esterase activity (acetyl choline esterase)
CC(C)=CCCC(C)CCOC=O (stereo not drawn) [citronellyl formate]	significant reduction	significant improvement, but only on day 2	not able to prefer/recognize a novel object	About 54%	
CC(C)=CCCC(C)CCO (stereo not drawn) [citronellol]	significant reduction	significant improvement, but only on day 2	not able to prefer/recognize a novel object	About 54%	
CC(C)=CCC[C@H](C)CCO [(S) (−) citronellol]					inhibits in vitro the activity of the enzyme acetyl choline esterase
